According to ChEMBL document CHEMBL2346586, “N-substituted azaindoles as potent inhibitors of Cdc7 kinase” (Bioorg Med Chem Lett, 2013):

Columns and labels:
[1] = Intrinsic clearance in rat liver microsomes; format: ADME, Microsome; details: read-out: CLH
[2] = Intrinsic clearance in human liver microsomes; format: ADME, Microsome; details: read-out: CLH
[3] = molecular target: Cyclin-dependent kinase 2 (Homo sapiens, UniProt P24941); assay: Inhibition of CDK2 (unknown origin)
[4] = molecular target: T1, Cell division cycle 7-related protein kinase (Homo sapiens, UniProt O00311); assay: Inhibition of CDC7 (unknown origin)
T1 sequence (O00311 whole entry): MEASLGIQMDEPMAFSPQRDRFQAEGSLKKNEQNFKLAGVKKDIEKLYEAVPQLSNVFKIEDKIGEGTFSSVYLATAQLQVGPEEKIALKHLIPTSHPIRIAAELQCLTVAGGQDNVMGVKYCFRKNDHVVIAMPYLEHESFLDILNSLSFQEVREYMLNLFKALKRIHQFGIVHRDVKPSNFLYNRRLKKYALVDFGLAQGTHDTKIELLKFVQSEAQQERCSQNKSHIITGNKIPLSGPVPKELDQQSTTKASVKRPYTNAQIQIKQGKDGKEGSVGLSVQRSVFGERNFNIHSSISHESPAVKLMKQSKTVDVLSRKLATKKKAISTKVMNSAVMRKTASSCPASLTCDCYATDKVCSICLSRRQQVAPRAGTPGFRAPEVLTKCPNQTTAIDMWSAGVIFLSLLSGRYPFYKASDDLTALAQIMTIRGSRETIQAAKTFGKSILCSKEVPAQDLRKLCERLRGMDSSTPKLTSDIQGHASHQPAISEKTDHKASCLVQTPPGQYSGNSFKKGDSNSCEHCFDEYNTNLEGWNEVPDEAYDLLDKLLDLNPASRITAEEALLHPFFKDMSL

[5] = molecular target: T1, Cell division cycle 7-related protein kinase; assay: Inhibition of CDC7 in human HCT116 cells assessed as MCM2 phosphorylation; format: cell-based, HCT-116
Homo sapiens = species: Homo sapiens; assay: Selectivity ratio of IC50 for CDK2 (unknown origin) to IC50 for CDC7 (unknown origin)

Compound | microsomal CLint [1] [µL/min/mg] | microsomal CLint [2] [µL/min/mg] | IC50 [3] [nM] | IC50 [4] [nM] | IC50 [5] [nM] | Ratio IC50 (Homo sapiens)
N#Cc1cc2c(ccn2-c2ccnc(N)n2)cn1 | 49 | 94 | > 44000 | 1240 |  | 
Nc1nccc(-n2ccc3cccnc32)n1 | 282 | 338 | 42000 | 26700 | > 50000 | 
N#Cc1ccc2ccn(-c3nccc(N)n3)c2c1 |  |  | > 29000 | 8800 |  | 
N#Cc1cnc2ccn(-c3ccnc(N)n3)c2c1 | 64 | 108 | > 83000 | 5300 |  | 
Nc1nccc(-n2ccc3ccc(C(F)(F)F)cc32)n1 |  |  | 17000 | 1100 |  | 
Nc1nccc(-n2cc(-c3cccc(Cl)c3)c3cnccc32)n1 |  |  | > 83000 | 160 |  | > 500
N#Cc1ccc2c(ccn2-c2ccnc(N)n2)c1 |  |  | > 29100 | 8500 |  | 
Nc1nccc(-n2ccc3ccncc32)n1 | 64 | 134 | 45100 | 930 |  | 
Nc1nccc(-n2ccc3ncccc32)n1 | 50 | 60 | 21000 | 12600 |  | 
N#Cc1ccc2ccn(-c3cc(N)ncn3)c2n1 | 46 | 34 | > 83000 | 9 | 1370 | 
Nc1nccc(-n2ccc3cnc(Cl)cc32)n1 | 134 | 104 | 38000 | 360 | > 50000 | > 100
N#Cc1ccc2ccn(-c3ccnc(N)n3)c2c1 | 124 | 430 | 16500 | 75 | 5000 | 220
Nc1nccc(-n2cc(-c3cccnc3Cl)c3cnc(Cl)cc32)n1 | 102 | 30 | > 83000 | 30 | 2300 | > 2700
N#Cc1ccc2ccn(-c3ccnc(N)c3)c2c1 | 122 | 201 | 39000 | 9000 | > 50000 | 
N#Cc1ccc2ccn(-c3cc(N)ncn3)c2c1 |  |  | > 83000 | 2700 |  | 
Nc1nccc(-n2ccc3ccccc32)n1 | 375 | 387 | 28500 | 4700 | > 50000 | 
Nc1nccc(-n2ccc3ccc(F)cc32)n1 |  |  | 34000 | 156 |  | 
Nc1nccc(-n2ccc3ccc([N+](=O)[O-])cc32)n1 |  |  | > 30600 | 82 |  | 
N#Cc1ccc2ccn(-c3ccncn3)c2c1 |  |  | > 83000 | 1500 |  | 
N#Cc1ccc2ccn(-c3cccc(N)n3)c2c1 |  |  | 45000 | 10400 |  | 

Compounds with a lower IC50 [3], results first:

microsomal CLint [1] [µL/min/mg] | microsomal CLint [2] [µL/min/mg] | IC50 [3] [nM] | IC50 [4] [nM] | IC50 [5] [nM] | Ratio IC50 (Homo sapiens) | Compound
101 | 62 | 3700 | 980 |  |  | Nc1nccc(-n2ccc3cnccc32)n1
 |  | 8200 | 350 |  |  | Nc1nccc(-n2ccc3ccc(Br)cc32)n1
 |  | 100 | 120 |  |  | Nc1nccc(-n2cc(-c3ccoc3)c3cnccc32)n1
 |  | 2700 | 25 |  |  | CNc1nccc(-n2ccc3ccc(C#N)cc32)n1
 |  | 60 | 330 |  |  | Nc1nccc(-n2cc(-c3ccc(Cl)cc3)c3cnccc32)n1
 |  | 160 | 160 |  |  | Nc1nccc(-n2cc(C3=CCOCC3)c3cnccc32)n1
 |  | 1100 | 160 |  | 7 | Nc1nccc(-n2cc(-c3cccnc3)c3cnccc32)n1
 |  | 5000 | 3300 |  |  | Nc1nccc(-n2ccc3ccc(O)cc32)n1
72 | 21 | 310 | 7 | 850 | 44 | Nc1nccc(-n2cc(-c3cccnc3Cl)c3cnccc32)n1
 |  | 310 | 104 |  | 3 | Nc1nccc(-n2cc(-c3ccccc3)c3cnccc32)n1
 |  | 160 | 250 |  |  | Nc1nccc(-n2cc(-c3ccncc3)c3cnccc32)n1
 |  | 550 | 580 |  |  | Nc1nccc(-n2cc(-c3cc[nH]n3)c3cnccc32)n1
 |  | 110 | 11 |  |  | Nc1nccc(-n2cc(-c3ccccc3Cl)c3cnccc32)n1
 |  | 3700 | 66 |  | 56 | Nc1nccc(-n2ccc3ccc(Cl)cc32)n1
 |  | 10000 | 760 |  |  | C#Cc1ccc2ccn(-c3ccnc(N)n3)c2c1
